Patent US20250129104A1, “7H-PYRROLO[2,3-D]PYRIMIDINES AND PREPARATION AND USES THEREOF” (BioSplice Therapeutics, Inc., priority 2021, published 2025)

target: recombinant DYRK1A kinase (Homo sapiens (Human), UniProt Q13627); experiment: DYRK1A kinase assay (Ser/Thr 18 peptide Z-lyte FRET assay); assay type: biochemical; settings: DYRK1A kinase activity; 15 μM ATP, 1 h room temperature; method text calls the value IC50
Outline: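 Recombinant human DYRK1A (0.25 μg/mL) with 15 μM ATP and 4 μM Ser/Thr 18 peptide, 1 h at room temperature with compound (11-point, 1:3, 10 μM top, duplicate). Z-lyte development 1 h, then coumarin/fluorescein FRET emission ratio converted to % phosphorylation; IC50 by non-linear regression.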

| EC50 [nM] | Compound |
| --- | --- |
| 671 | Cc1nc2ccc(-c3c[nH]c4nc(NCC(C)(C)F)ncc34)nc2s1 [Compound 54, N-(2-Fluoro-2-methylpropyl)-5-(2-methylthiazolo[5,4-b]pyridin-5-yl)-7H-pyrrolo[2,3-d]pyrimidin-2-amine] |
| > 10000 | CC(C)(F)CNc1ncc2c(-c3ccc(OC(F)F)nc3)c[nH]c2n1 [Compound 7] |
| 1.7 | COCCO[C@H]1CC[C@@H](Nc2nc(OC)c3c(-c4ccn5nccc5c4)c[nH]c3n2)CC1 [Compound 2214, 4-Methoxy-N-(cis-4-(2-methoxyethoxy)cyclohexyl)-5-(pyrazolo[1,5-a]pyridin-5-yl)-7H-pyrrolo[2,3-d]pyrimidin-2-amine] |
| 1.6 | COc1nc(NC2CCC3(CC2)COC3)nc2[nH]cc(-c3ccc4nccnc4c3)c12 [Compound 3590, 4-Methoxy-5-(quinoxalin-6-yl)-N-(2-oxaspiro[3.5]nonan-7-yl)-7H-pyrrolo[2,3-d]pyrimidin-2-amine] |
| 160 | COc1nc(N[C@@H]2CCOC[C@H]2F)nc2[nH]cc(-c3ccn4nccc4c3)c12 [Compound 2316, N-((3S,4R)-3-Fluorotetrahydro-2H-pyran-4-yl)-4-methoxy-5-(pyrazolo[1,5-a]pyridin-5-yl)-7H-pyrrolo[2,3-d]pyrimidin-2-amine] |
| 66.9 | CN1CCC(Nc2ncc3c(-c4ccc5c(c4)OC(C)(C)CC5=O)c[nH]c3n2)CC1 [Compound 1801, 2,2-Dimethyl-7-(2-((1-methylpiperidin-4-yl)amino)-7H-pyrrolo[2,3-d]pyrimidin-5-yl)chroman-4-one] |
| 3.6 | COc1nc(N[C@H]2CC[C@@H](OCC(F)F)CC2)nc2[nH]cc(-c3cc(F)c4nccn4c3)c12 [Compound 2187, N-(cis-4-(2,2-Difluoroethoxy)cyclohexyl)-5-(8-fluoroimidazo[1,2-a]pyridin-6-yl)-4-methoxy-7H-pyrrolo[2,3-d]pyrimidin-2-amine] |
| 4 | c1cn2nc(-c3c[nH]c4nc(NC5CCOCC5)ncc34)ccc2n1 [Compound 930, 5-(Imidazo[1,2-b]pyridazin-6-yl)-N-(tetrahydro-2H-pyran-4-yl)-7H-pyrrolo[2,3-d]pyrimidin-2-amine] |
| 48.1 | CC(C)(C)CNc1ncc2c(-c3ccc4ncnn4c3)c[nH]c2n1 [Compound 728, 5-([1,2,4]Triazolo[1,5-a]pyridin-6-yl)-N-neopentyl-7H-pyrrolo[2,3-d]pyrimidin-2-amine] |
| 1.5 | CCOc1nc(N[C@H]2CC[C@@H](O)CC2)nc2[nH]cc(-c3ccc4nnn(C)c4c3)c12 [Compound 2197, cis-4-((4-Ethoxy-5-(1-methyl-1H-benzo[d][1,2,3]triazol-6-yl)-7H-pyrrolo[2,3-d]pyrimidin-2-yl)amino)cyclohexan-1-ol] |
| 9.3 | Cc1nc2c(F)cc(-c3c[nH]c4nc(NCC5CCN(C)CC5)ncc34)cc2n1C(C)C [Compound 529, 5-(4-Fluoro-1-isopropyl-2-methyl-1H-benzo[d]imidazol-6-yl)-N-((1-methylpiperidin-4-yl)methyl)-7H-pyrrolo[2,3-d]pyrimidin-2-a] |
| 1.6 | COc1nc(NC2CCC3(CC2)OCCO3)nc2[nH]cc(-c3ccn4nccc4c3)c12 [Compound 2215, 4-Methoxy-5-(pyrazolo[1,5-a]pyridin-5-yl)-N-(1,4-dioxaspiro[4.5]decan-8-yl)-7H-pyrrolo[2,3-d]pyrimidin-2-amine] |
| 5.9 | CC(F)(F)CNc1ncc2c(-c3ccn4nccc4n3)c[nH]c2n1 [Compound 1649, N-(2,2-Difluoropropyl)-5-(pyrazolo[1,5-a]pyrimidin-5-yl)-7H-pyrrolo[2,3-d]pyrimidin-2-amine] |
| 7.3 | CN1CCC(CNc2ncc3c(-c4ccc5c(c4)OCCNC5=O)c[nH]c3n2)CC1 [Compound 1758, 8-(2-(((1-Methylpiperidin-4-yl)methyl)amino)-7H-pyrrolo[2,3-d]pyrimidin-5-yl)-3,4-dihydrobenzo[f][1,4]oxazepin-5(2H)-one] |
| 23 | FC(F)(F)CNc1ncc2c(-c3ccc4ncnn4c3)c[nH]c2n1 [Compound 733, 5-([1,2,4]Triazolo[1,5-a]pyridin-6-yl)-N-(2,2,2-trifluoroethyl)-7H-pyrrolo [2,3-d]pyrimidin-2-amine] |
| 411 | Cn1cc(-c2c[nH]c3nc(NC4CCC(F)(F)CC4)ncc23)ccc1=O [Compound 4, 5-(2-((4,4-Difluorocyclohexyl)amino)-7H-pyrrolo[2,3-d]pyrimidin-5-yl)-1-methylpyridin-2(1H)-one] |
| 3.2 | C[C@]1(O)CC[C@@H](Nc2ncc3c(-c4ccn5nccc5n4)c[nH]c3n2)CC1 [Compound 3426, (1s,4s)-1-Methyl-4-((5-(pyrazolo[1,5-a]pyrimidin-5-yl)-7H-pyrrolo[2,3-d]pyrimidin-2-yl)amino)cyclohexan-1-ol] |
| 42.8 | Cc1nc2ccc(-c3c[nH]c4nc(NCC(C)(C)F)ncc34)nc2n1CC(F)F [Compound 643, 5-(3-(2,2-Difluoroethyl)-2-methyl-3H-imidazo[4,5-b]pyridin-5-yl)-N-(2-fluoro-2-methylpropyl)-7H-pyrrolo[2,3-d]pyrimidin-2-amine] |

| EC50 [nM] | Compound |
| --- | --- |
| 227 | Cc1nc2c(F)cc(-c3c[nH]c4nc(N5CCC5)ncc34)cc2n1C(C)C [Compound 494, 2-(Azetidin-1-yl)-5-(4-fluoro-1-isopropyl-2-methyl-1H-benzo[d]imidazol-6-yl)-7H-pyrrolo[2,3-d]pyrimidine] |
| 115 | Fc1cc(-c2c[nH]c3nc(C4CC4)ncc23)cn2c(C(F)F)cnc12 [Compound 359, 2-Cyclopropyl-5-(3-(difluoromethyl)-8-fluoroimidazo[1,2-a]pyridin-6-yl)-7H-pyrrolo[2,3-d]pyrimidine] |
| 15.4 | cis-4-((4-Ethoxy-5-(pyrazolo[1,5-a]pyrimidin-5-yl)-7H-pyrrolo[2,3-d]pyrimidin-2-yl)amino)cyclohexan-1-ol [Compound 2225] |
| 8.8 | CC(C)(C)CNc1ncc2c(-c3ccc4nccn4n3)c[nH]c2n1 [Compound 907, 5-(Imidazo[1,2-b]pyridazin-6-yl)-N-neopentyl-7H-pyrrolo[2,3-d]pyrimidin-2-amine] |
| 9.5 | C[C@H](Nc1ncc2c(-c3cnc4nccn4c3)c[nH]c2n1)C(F)(F)F [Compound 464, (S)-5-(Imidazo[1,2-a]pyrimidin-6-yl)-N-(1,1,1-trifluoropropan-2-yl)-7H-pyrrolo[2,3-d]pyrimidin-2-amine] |
| 3.3 | CN1CCN(c2ccc(Nc3ncc4c(-c5ccc6nccnc6c5)c[nH]c4n3)cn2)CC1 [Compound 1938, N-(6-(4-Methylpiperazin-1-yl)pyridin-3-yl)-5-(quinoxalin-6-yl)-7H-pyrrolo [2,3-d]pyrimidin-2-amine] |
| 2.9 | CO[C@H]1C[C@@H](Nc2ncc3c(-c4ccn5nccc5n4)c[nH]c3n2)C1 [Compound 2070, N-(cis-3-Methoxycyclobutyl)-5-(pyrazolo[1,5-a]pyrimidin-5-yl)-7H-pyrrolo [2,3-d]pyrimidin-2-amine] |
| 2.9 | Nc1ncc2c(-c3ccc4ncccc4c3)c[nH]c2n1 [Compound 1862, 5-(Quinolin-6-yl)-7H-pyrrolo[2,3-d]pyrimidin-2-amine] |
| 117 | COc1nc(NCC(C)(C)F)nc2[nH]cc(-c3ccc4nccn4n3)c12 [Compound 2298, N-(2-Fluoro-2-methylpropyl)-5-(imidazo[1,2-b]pyridazin-6-yl)-4-methoxy-7H-pyrrolo[2,3-d]pyrimidin-2-amine] |
| 1400 | CC(C)(F)CNc1ncc2c(-c3ccc(C(F)F)nc3)c[nH]c2n1 [Compound 5, 5-(6-(Difluoromethyl)pyridin-3-yl)-N-(2-fluoro-2-methylpropyl)-7H-pyrrolo [2,3-d]pyrimidin-2-amine] |
| 3.6 | CN1CCN(c2ccc(CNc3ncc4c(-c5ccc6ncccc6c5)c[nH]c4n3)cn2)CC1 [Compound 1895, N-((6-(4-Methylpiperazin-1-yl)pyridin-3-yl)methyl)-5-(quinolin-6-yl)-7H-pyrrolo[2,3-d]pyrimidin-2-amine] |
| 3 | CCO[C@H]1CC[C@@H](Nc2ncc3c(-c4ccc5nccn5n4)c[nH]c3n2)CC1 [Compound 2145, N-(cis-4-Ethoxycyclohexyl)-5-(imidazo[1,2-b]pyridazin-6-yl)-7H-pyrrolo [2,3-d]pyrimidin-2-amine] |
| 1000 | COC[C@@H](C)Nc1nc(OC)c2c(-c3ccc4nc(C)n(CC(F)F)c4n3)c[nH]c2n1 [Compound 2278, (R)-5-(3-(2,2-Difluoroethyl)-2-methyl-3H-imidazo[4,5-b]pyridin-5-yl)-4-methoxy-N-(1-methoxypropan-2-yl)-7H-pyrrolo[2,3-d]pyrimidin-2-amine] |
| 47.4 | COc1nc(NCC(C)(C)F)nc2[nH]cc(-c3ccc4nnn(C)c4c3)c12 [Compound 2283, N-(2-Fluoro-2-methylpropyl)-4-methoxy-5-(1-methyl-1H-benzo[d][1,2,3]triazol-6-yl)-7H-pyrrolo[2,3-d]pyrimidin-2-amine] |
| 165 | C[C@H](Nc1ncc2c(-c3ccn4ncnc4c3)c[nH]c2n1)C(F)(F)F [Compound 807, (S)-5-([1,2,4]Triazolo[1,5-a]pyridin-7-yl)-N-(1,1,1-trifluoropropan-2-yl)-7H-pyrrolo[2,3-d]pyrimidin-2-amine] |
| 6.1 | c1cc2nc(-c3c[nH]c4nc(NC5CCOCC5)ncc34)ccn2n1 [Compound 1669, 5-(Pyrazolo[1,5-a]pyrimidin-5-yl)-N-(tetrahydro-2H-pyran-4-yl)-7H-pyrrolo [2,3-d]pyrimidin-2-amine] |
| 6.9 | Cn1nnc2ccc(-c3c[nH]c4nc(N[C@H]5CC[C@@H](OCC(F)F)CC5)ncc34)cc21 [Compound 2192, N-(cis-4-(2,2-Difluoroethoxy)cyclohexyl)-5-(1-methyl-1H-benzo[d][1,2,3]triazol-6-yl)-7H-pyrrolo[2,3-d]pyrimidin-2-amine] |
| 79.8 | CN(C(=O)c1cnn2ccc(-c3c[nH]c4nc(C5CC5)ncc34)cc12)C1CC(F)(F)C1 [Compound 1379, 5-(2-Cyclopropyl-7H-pyrrolo[2,3-d]pyrimidin-5-yl)-N-(3,3-difluorocyclobutyl)-N-methylpyrazolo[1,5-a]pyridine-3-carboxamide] |
